Some test systems named below: CAKI-1 renal; SN12C renal; SNB-19 CNS; LOX IMVI melanoma; HS 578T breast; A498 renal; EKVX NSCLC; T-47D breast; MDA-N; SR leukemia; NCI-H522 lung; UACC-257 melanoma; SW-620 colon; PC-3 prostate; K-562 leukemia; CCRF-CEM leukemia; MCF7 breast; BT-549 breast.
Assay in all cases: NCI anticancer screen, dose series, 48 h

Several values for one entry are separate records, joined by “and”; a condition that tells them apart may be missing. Identical values can stand only once.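 Cells were grown in 96-well plates and exposed to each compound for 48 hours at five concentrations; endpoints were interpolated linearly between bracketing concentrations, or set to the highest concentration if not reached. The concentration for 50% growth inhibition is given as GI50. Definition used: TGI = concentration required for complete inhibition of growth.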

As to `Cn1c(SCc2ccc(F)cc2)nnc1C12CC3CC(CC(C3)C1)C2`, the TGI is greater than 100 µM in the experiment with CAKI-1 renal; greater than 100 µM in the experiment on SN12C renal; greater than 100 µM in the experiment with SNB-19 CNS; 45.6 µM in the experiment with LOX IMVI melanoma; 85.1 µM in the experiment on HS 578T breast; 48.4 µM with A498 renal. The TGI is greater than 100 µM in the experiment with EKVX NSCLC; greater than 100 µM in the experiment on T-47D breast; greater than 100 µM with MDA-N; 93.9 µM with SR leukemia; greater than 100 µM in the experiment on NCI-H522 lung; 91.7 µM in the experiment on UACC-257 melanoma. For the same compound, the TGI in the experiment on SW-620 colon is greater than 100 µM; in the experiment with PC-3 prostate it was greater than 100 µM; in the experiment with K-562 leukemia, greater than 100 µM; with CCRF-CEM leukemia it was 43.3 µM.

Take `CSC1=N/C(=C\c2ccc(C)cc2)C(=O)N1CN1CCCCC1`: the TGI in the experiment on SN12C renal, in the experiment on SNB-19 CNS, in the experiment with LOX IMVI melanoma, in the experiment with HS 578T breast, with A498 renal and in the experiment on EKVX NSCLC was greater than 100 µM in each case. For the same compound, the TGI in the experiment on MDA-N, with SR leukemia, with NCI-H522 lung, in the experiment with SW-620 colon, with MCF7 breast and in the experiment on PC-3 prostate was greater than 100 µM throughout. In the experiment on K-562 leukemia, this compound had a TGI greater than 100 µM.

Turning to `CCOC(=O)N1CCC(N[C@@H]2c3cc4c(cc3C(c3cc(OC)c(O)c(OC)c3)C3C(=O)OC[C@@H]32)OCO4)CC1` (some centres not stated), the TGI in the experiment with CAKI-1 renal was 2.35 µM and 2.26 µM; in the experiment with SN12C renal it was 2.93 µM and 1.34 µM; with SNB-19 CNS it was 7.1 µM and 6.95 µM; with LOX IMVI melanoma it was 7.97 µM and 12.4 µM; with A498 renal, 1.89 µM and 2.08 µM; in the experiment on EKVX NSCLC it was 4.86 µM and 7.1 µM. The TGI was 3.21 µM and > 25 µM in the experiment with SR leukemia; 7.72 µM and 7.21 µM in the experiment with NCI-H522 lung; 36.3 µM and > 25 µM with UACC-257 melanoma; 13.7 µM and 7.55 µM in the experiment on SW-620 colon; 22.4 µM and > 25 µM with K-562 leukemia; 18.9 µM and > 25 µM in the experiment with CCRF-CEM leukemia. Further, the GI50 was 1.21 µM and 0.366 µM with SN12C renal; 1.41 µM and 3.08 µM in the experiment on NCI-H522 lung.

As to `Cc1ccc(/C=N\NC2c3cc(Cl)ccc3Nc3nc(=O)[nH]c(C)c32)cc1` (configuration not stated), the TGI in the experiment on SN12C renal, in the experiment on SNB-19 CNS, in the experiment with LOX IMVI melanoma, with EKVX NSCLC, with SR leukemia and in the experiment on NCI-H522 lung was greater than 100 µM each time. Further, the TGI with UACC-257 melanoma, with SW-620 colon, with K-562 leukemia and with CCRF-CEM leukemia was greater than 100 µM in each case.

`O=C(NCP(=O)(Oc1ccccc1)Oc1ccccc1)OCc1ccccc1`: the TGI in the experiment on CAKI-1 renal, with SN12C renal, in the experiment on SNB-19 CNS, in the experiment with LOX IMVI melanoma, with HS 578T breast and with EKVX NSCLC was greater than 100 µM each time. In addition, the TGI in the experiment on T-47D breast, in the experiment on BT-549 breast, in the experiment on SR leukemia, in the experiment with NCI-H522 lung, in the experiment on UACC-257 melanoma and in the experiment with SW-620 colon was greater than 100 µM throughout. The TGI in the experiment with MCF7 breast, with PC-3 prostate, with K-562 leukemia and with CCRF-CEM leukemia was greater than 100 µM throughout.

Turning to `COc1cc2c(cc1OC)C1C3CCCCC3CCN1CC2` (configuration not stated), the TGI in the experiment with CAKI-1 renal, with SN12C renal, in the experiment on SNB-19 CNS, with LOX IMVI melanoma, in the experiment with HS 578T breast and with A498 renal was greater than 100 µM each time. The TGI with EKVX NSCLC, in the experiment on T-47D breast, with SR leukemia, in the experiment on NCI-H522 lung, in the experiment on UACC-257 melanoma and in the experiment on SW-620 colon was greater than 100 µM throughout. The TGI with MCF7 breast, with PC-3 prostate, in the experiment with K-562 leukemia and with CCRF-CEM leukemia was greater than 100 µM in each case.

Consider `CSc1nc(SC)c2c(C#N)[nH]nc2n1`, for which the TGI in the experiment with CAKI-1 renal, with SN12C renal, in the experiment with SNB-19 CNS, with LOX IMVI melanoma, in the experiment with A498 renal and with EKVX NSCLC was greater than 100 µM in each case. The TGI in the experiment with SR leukemia, in the experiment with NCI-H522 lung, in the experiment on UACC-257 melanoma, in the experiment on SW-620 colon, in the experiment with K-562 leukemia and in the experiment with CCRF-CEM leukemia was greater than 100 µM in each case.

In the case of `CCOC(=O)C1S/C(=N\C(=N)N[N+](=O)[O-])N=C1C` (configuration not stated), the TGI with SN12C renal, in the experiment with SNB-19 CNS, in the experiment on LOX IMVI melanoma, in the experiment on A498 renal, with EKVX NSCLC and in the experiment with SR leukemia was greater than 100 µM each time. The TGI with NCI-H522 lung, with UACC-257 melanoma, in the experiment on SW-620 colon and with K-562 leukemia was greater than 100 µM throughout.

Turning to `Cc1ccc(S(=O)(=O)n2c3c(c4ccccc42)CCN2C[C@H]([C@H](C)Br)CC[C@@H]32)cc1`, the TGI with CAKI-1 renal, with SNB-19 CNS, in the experiment on LOX IMVI melanoma, in the experiment on A498 renal, in the experiment with EKVX NSCLC and in the experiment on T-47D breast was greater than 100 µM each time. In addition, the TGI with MDA-N, in the experiment on SR leukemia, in the experiment with NCI-H522 lung, with UACC-257 melanoma, with SW-620 colon and with MCF7 breast was greater than 100 µM each time. The TGI in the experiment on PC-3 prostate, in the experiment on K-562 leukemia and in the experiment on CCRF-CEM leukemia was greater than 100 µM throughout.

On to `COc1cc(O)c2c(c1)C(=O)c1cc3c(c(O)c1C2=O)C(OC1OC(C)C(OC)C(O)C1OC)C(OC)C(C)(O)C3=O` (configuration not stated), for which the TGI with CAKI-1 renal stood at 11 µM; with SNB-19 CNS it was 23.3 µM; with LOX IMVI melanoma, 12.4 µM; in the experiment with HS 578T breast it was 33.3 µM; in the experiment with A498 renal it was 21.7 µM; in the experiment on EKVX NSCLC, 14.5 µM. For the same compound, the TGI amounted to 31.6 µM in the experiment on BT-549 breast; 9.16 µM in the experiment with SR leukemia; 3.62 µM in the experiment on NCI-H522 lung; 16.2 µM in the experiment on UACC-257 melanoma; 18.1 µM with SW-620 colon; 17.1 µM in the experiment on MCF7 breast. The TGI came to 14.1 µM in the experiment with PC-3 prostate, 19.4 µM with K-562 leukemia and 41.6 µM in the experiment on CCRF-CEM leukemia.
